Drawing on BindingDB's records for doi:10.1074/jbc.M113.490441 (University of Calgary, 2013), this text covers Kd for one compound.

The target in this assay is T1, Histidine-binding periplasmic protein [1-238] (Escherichia coli (strain 55989 / EAEC), UniProt P0AEU0).
T1 construct: 1-238
T1 sequence (P0AEU0 whole entry): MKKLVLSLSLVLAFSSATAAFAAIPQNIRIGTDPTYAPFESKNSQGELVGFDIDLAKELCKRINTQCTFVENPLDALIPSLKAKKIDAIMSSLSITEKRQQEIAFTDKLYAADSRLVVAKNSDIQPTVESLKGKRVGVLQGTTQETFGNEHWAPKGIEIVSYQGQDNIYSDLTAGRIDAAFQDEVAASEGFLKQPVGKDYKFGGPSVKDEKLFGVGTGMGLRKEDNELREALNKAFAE
Kind of assay: Isothermal Titration Calorimetry (ITC). The following applies: pH 7; 30 °C. As to the method:
All ITC experiments were performed using a Microcal VP-ITC microcalorimeter (GE Healthcare). All samples were prepared in a buffer containing 20 mM HEPES (pH 7.0) and 100 mM NaCl. The syringe was filled with 0.5 mM histidine that was injected into the ITC cell containing 20 μM protein (D1, D2, or HisJ) solution at 30 °C.
(Isothermal titration calorimetry measures the heat released or taken up as one component is titrated into another.)

A word on the Kd: it is the equilibrium constant for the complex coming apart.

Take `N[C@@H](Cc1c[nH]cn1)C(=O)O` [L-2-Amino-3-(4-imidazolyl)propionic acid]: the Kd stood at 114 nM.
